# In patent US20240182475A1 (Université de Lausanne, priority 2021, published 2024):
# Columns and labels:
# [1] = molecular target: T1, recombinant human CSE (hCSE) (Homo sapiens, UniProt P32929); assay: High-throughput screening pyruvate assay for CSE activators; format: biochemical; settings: 5 μM; % of pyruvate generated over hCSE alone
# T1 construct: purchased ProteoGenix, France
# Procedure: The chemical reactions involved in the 2 step assay are depicted. In (a) recombinant human CSE (hCSE) is incubated with L-cysteine, generating H2S and pyruvate. In (b) pyruvate is oxidized by pyruvate oxidase (PDX) to generate acetate, carbon dioxide (CO2) and hydrogen peroxide (H2O2). H2O2 then reacts with Amplex Red in a 1:1 stoichiometry to form the red fluorescent product, resorufin. (c) hCSE-dependent pyruvate measurement without enzyme (no pyruvate production), with the specific CSE inhibitor AVG 5 μM (inhibition of pyruvate production) and with the CSE activator calmodulin 5 μM (increased pyruvate production). Results were expressed as the % of pyruvate generated over hCSE alone. (d) Chemical structure of the new small molecule CSE activator SU004. (e) CSE-dependent pyruvate upon incubation of hCSE with L-cysteine and with increasing concentration of SU004. The ability of SU004 to activate hCSE was calculated as % of normalized activity.
# We therefore hypothesized that potential CSE activators could counter these effects and be of therapeutic value in musculoskeletal HC. We set up a screening assay with human recombinant CSE (hCSE) and L-Cysteine as substrate, using as read-out the production of pyruvate as a surrogate of H2S production. As expected, pyruvate was detected only in presence of hCSE. […]
# [2] = test system: WT murine primary chondrocytes; assay: Murine primary chondrocyte calcification (Alizarin red); format: cell-based, mouse
# Procedure: (a) WT and Cse-deficient chondrocytes were incubated with a CSE activator (SU004, 50 μM) previously identified by high-through put screen, or with the equivalent volume of DMSO (0.1%) for 24 hours in calcification medium. STS 25 mM was used as a positive control for calcification inhibition. Calcium-containing crystals were stained with Alizarin red and quantified. (b) Cytotoxicity was assessed by LDH measurement and expressed as % over 100% cytotoxicity. (c) IL-6 secretion was measured by ELISA in supernatant of WT chondrocytes incubated with SU004 50 μM or STS 25 mM for 24 hours in calcification medium. (d) Primary human chondrocytes from 3 OA patients (P1, P2, P3) were incubated with SU004 50 μM, or with the equivalent volume of DMSO (0.1%) for 24 hours in calcification medium. Calcium-containing crystals were stained with Alizarin red and quantified. (e) Cytotoxicity was assessed by LDH measurement and expressed as % over 100% cytotoxicity. (f) IL-6 secretion was measured by ELISA in supernatant of human chondrocytes incubated for 24 hours with SU004 50 μM in calcification medium. *p<0.05, ** p<0.01, ****p<0.0001.
# Primary murine chondrocytes were stimulated with secondary calciprotein particles (sCPP) for 24 h in DMEM+10% FBS in presence of C5 or C6 at 50 uM or vehicle (DMSO). Mineralization was analyzed by Alizarin red staining of the cells (A) and quantified (B). Statistical analysis was determined using one-way ANOVA with **p<0.01 and ***p<0.001.
# Chondrocytes were isolated from 6 days old mice (Cse KO, Cse tg, Cbs KO and corresponding WT mice) as described previously (Nasi, So, et al. 2016). Tenocytes were isolated from 6 to 8 weeks old mice (Cse KO and WT) and by double digestion in Collagenase IV NB standard grade (Witec AG). […]
# After incubation in calcification media, supernatant was collected for ELISA and LDH measurement, and cell monolayer was washed in PBS, fixed in 10% formol and crystal deposition analyzed through Alizarin red staining and quantified as previously described
# MOVAS cells [3] = assay: MOVAS cell calcification assay (Alizarin red); format: cell-based, mouse
# Procedure: A) Alizarin red staining of MOVAS cells stimulated with sCPP for 24 h in DMEM+10% FBS and treated or not with 50 uM of compounds. […] Statistical analysis was determined using one-way ANOVA with ***p<0.001. C) Percentage of cytotoxicity (LDH %) in MOVAS treated or not with compounds for 24 h. D) MOVAS cells were seeded onto half-area 96-well plate and incubated overnight. Then C5 or C6 at 50 uM or vehicle (DMSO), L-cysteine at 10 mM, PLP at 5 uM and the H2S sensitive fluorescent probe AzMC at 10 μM were added. The fluorescence was immediately measured in kinetic mode for 2 h at 37° C. with SpectraMax M5 reader, with excitation and emission wavelengths of 365 nm and 450 nm, respectively.
# A) Alizarin red staining of Movas cells stimulated with sCPP for 24 h in DMEM+10% FBS and treated or not with 50 uM of Z20. […] C) Percentage of cytotoxicity (LDH %) in murine chondrocytes treated or not with Z20 for 24 h. Statistical analysis was determined using one-way ANOVA with ***p<0.001.
# Alizarin red staining of MOVAS cells stimulated with sCPP for 24 h in DMEM+10% FBS and treated or not with different concentrations of compounds (A: C6) and (B: Z20). The graphs show Alizarin red absorbance at 570-630 nm. Statistical analysis was determined using one-way ANOVA with *p<0.05, **p<0.01, ***p<0.001.
# CPP were generated by preparing 20 ml DMEM containing 10% FBS, 1 mmol/L CaCl2, 3.5 mmol/L inorganic phosphate (1.36 mmol/L NaH2PO4 and 2.14 mmol/L Na2HPO4) (Aghagolzadeh et al. Atherosclerosis, 2016). After 7 days incubation at 37° C., the suspension was centrifuged at 25000 g for 2 h at 4° C., and the pellet containing CPP was resuspended in 1 ml DMEM and stored at −20° C. until further use.
# Mouse vascular smooth muscle cell line (MOVAS) cells were cultured according to the manufacturer's guidelines in DMEM culture medium supplemented with 10% FBS. Cells were cultured at 37° C. in a humidified atmosphere with 5% CO2. All cell culture experiments in 96-well plates were performed in triplicates and were repeated independently two times.
# For calcification experiments, cells were seeded in 96-well plates at a density of 50,000 cells/well and left to attach for 18 h. Calcification of cell monolayers was induced by CPP (equivalent to 50 μg Ca/mL) for 24 h at 37° C., 5% CO2 in presence of various concentrations of compounds (all in final 0.1% DMSO), or of 0.1% DMSO as a control, to reach a final volume of 200 μl/well. Calcium deposition was assessed by 0.5% w/v Alizarin Red staining (pH 4.2). Briefly, after PBS washing, methanol fixation for 10 min at 4° C., and milli-Q water washing, cells were incubated for 60 min with 200 μL Alizarin Red solution and then washed four times with milli-Q water. Quantification was performed after crystal dissolution with cetylpyridinium chloride (10%) for 18 h. The absorbance was measured at 570 and 630 nm using the Spectramax M5e reader (Molecular Devices). The background (alizarin red staining obtained with cells in the absence of CPP) was subtracted from all values.
# MOVAS cells [4] = assay: Cytotoxicity assay, LDH release; format: cell-based, mouse; settings: at 50 uM
# Procedure: A) Alizarin red staining of MOVAS cells stimulated with CPP for 24 h in DMEM+10% FBS in presence of different concentrations of compound 22401. […] The background (Alizarin red staining obtained with cells in the absence of CPP) was subtracted from all values. B) Percentage of cytotoxicity, as measured by LDH release, in MOVAS cells in the same conditions as A). Statistical analysis was determined using one-way ANOVA with *p<0.05, **p<0.01, ***p<0.001.
# Measurement of lactate dehydrogenase (LDH) as a means of cytotoxicity assay was performed with using CytoTox-ONE Homogeneous Membrane Integrity Assay (Promega) according to the manufacturer's instructions. Values were calculated as percentage of cytotoxicity using the following formula: [(value in sample)−(background)]/[(value in Triton X-100-treated sample)−(background)]×100.
# ATDCS chondrocytes = assay: ATDCS chondrocyte mineralization (Alizarin red); format: cell-based; settings: sCPP 24 h, different concentrations
# Procedure: Alizarin red staining of ATDCS chondrocytes stimulated with sCPP for 24 h in DMEM+10% FBS in presence of different concentrations of compounds C5 and C6. The graphs show Alizarin red absorbance at 570-630 nm. Statistical analysis (in comparison to 0) was determined using one-way ANOVA with *p<0.05, **p<0.01, ***p<0.001, […].
# T1 sequence (P32929 whole entry): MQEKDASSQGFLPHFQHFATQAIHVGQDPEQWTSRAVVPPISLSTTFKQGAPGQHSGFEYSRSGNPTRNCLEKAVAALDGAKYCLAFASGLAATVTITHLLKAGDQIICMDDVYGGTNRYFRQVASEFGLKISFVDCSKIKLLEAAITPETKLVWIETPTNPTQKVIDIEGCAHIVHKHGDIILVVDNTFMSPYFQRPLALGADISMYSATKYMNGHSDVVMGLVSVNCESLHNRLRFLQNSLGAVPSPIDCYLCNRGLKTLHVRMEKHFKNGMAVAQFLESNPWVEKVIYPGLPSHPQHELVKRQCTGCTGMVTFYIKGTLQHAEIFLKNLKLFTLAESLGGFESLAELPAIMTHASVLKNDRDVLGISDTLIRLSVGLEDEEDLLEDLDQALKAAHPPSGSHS
compound,measurement,setting,value
NCCO/C=C/C(N)C(=O)O (stereo not drawn) [AVG],hCSE-dependent pyruvate production,[1],almost complete inhibition
"N[C@@H](CCS)C(=O)O [homocysteine, reference compound]",Calcification,[2]; WT chondrocytes incubated with 100 μM or 25 μM,significantly decreased
N-{1-[(pyridin-2-yl)methyl]-1H-pyrazol-4-yl}benzamide [Compound 12],Calcification assay Max calcification inhibition (%) at the indicated dose of compound (uM),MOVAS cells [3]; at 50 uM,43% at
same,Mineralization (Alizarin red),"MOVAS cells [3]; sCPP 24 h, 50 uM",inhibit murine vascular smooth muscle cells (MOVAS cells) mineralization
same,Mineralization (Alizarin red absorbance 570-630 nm),"MOVAS cells [3]; sCPP 24 h, different concentrations",Dose-dependent effect
same,Cytotoxicity assay LDH release (% of cytotoxicity),MOVAS cells [4],13% at
same,Mineralization (Alizarin red),"[2]; sCPP 24 h, DMEM+10% FBS, 50 uM",inhibit primary murine chondrocyte mineralization
same,Mineralization (Alizarin red absorbance 570-630 nm),ATDCS chondrocytes,inhibit ATDCS mineralization in vitro in a dose dependent fashion
calmodulin,hCSE-dependent pyruvate production,[1],pyruvate up-modulation
